Assay results published in ChEMBL document CHEMBL5291721, “A preclinical secondary pharmacology resource illuminates target-adverse drug reaction associations of marketed drugs” (Nat Commun, 2023).

Legend:
[1] = target: 5-hydroxytryptamine receptor 2B (Homo sapiens, UniProt P41595)
[2] = target: T1, Type-1 angiotensin II receptor (Homo sapiens, UniProt P30556)
T1 sequence (P30556 whole entry): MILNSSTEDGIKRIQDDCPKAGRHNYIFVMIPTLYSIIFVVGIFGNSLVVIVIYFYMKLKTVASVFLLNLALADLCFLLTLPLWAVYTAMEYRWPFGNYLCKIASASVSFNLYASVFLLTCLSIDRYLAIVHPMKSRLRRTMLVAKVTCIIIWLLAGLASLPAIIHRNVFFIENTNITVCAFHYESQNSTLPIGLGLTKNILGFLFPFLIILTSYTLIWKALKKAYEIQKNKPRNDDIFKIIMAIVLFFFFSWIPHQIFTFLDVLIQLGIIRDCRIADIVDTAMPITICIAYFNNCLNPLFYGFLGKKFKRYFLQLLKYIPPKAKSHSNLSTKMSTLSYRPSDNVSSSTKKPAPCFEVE

Adenosine receptor A3 = target: T2, Adenosine receptor A3 (Homo sapiens, UniProt P0DMS8)
T2 sequence (P0DMS8 whole entry): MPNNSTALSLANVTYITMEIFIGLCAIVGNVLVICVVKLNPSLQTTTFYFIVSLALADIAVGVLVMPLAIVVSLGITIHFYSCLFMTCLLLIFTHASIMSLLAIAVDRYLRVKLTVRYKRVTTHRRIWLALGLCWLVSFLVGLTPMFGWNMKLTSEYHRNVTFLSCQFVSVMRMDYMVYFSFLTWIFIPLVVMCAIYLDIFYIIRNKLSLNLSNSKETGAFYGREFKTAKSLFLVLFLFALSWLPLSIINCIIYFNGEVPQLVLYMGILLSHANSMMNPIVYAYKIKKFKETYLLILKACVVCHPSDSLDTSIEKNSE

Estrogen receptor [3] = target: T3, Estrogen receptor (Homo sapiens, UniProt P03372)
T3 sequence (P03372 whole entry): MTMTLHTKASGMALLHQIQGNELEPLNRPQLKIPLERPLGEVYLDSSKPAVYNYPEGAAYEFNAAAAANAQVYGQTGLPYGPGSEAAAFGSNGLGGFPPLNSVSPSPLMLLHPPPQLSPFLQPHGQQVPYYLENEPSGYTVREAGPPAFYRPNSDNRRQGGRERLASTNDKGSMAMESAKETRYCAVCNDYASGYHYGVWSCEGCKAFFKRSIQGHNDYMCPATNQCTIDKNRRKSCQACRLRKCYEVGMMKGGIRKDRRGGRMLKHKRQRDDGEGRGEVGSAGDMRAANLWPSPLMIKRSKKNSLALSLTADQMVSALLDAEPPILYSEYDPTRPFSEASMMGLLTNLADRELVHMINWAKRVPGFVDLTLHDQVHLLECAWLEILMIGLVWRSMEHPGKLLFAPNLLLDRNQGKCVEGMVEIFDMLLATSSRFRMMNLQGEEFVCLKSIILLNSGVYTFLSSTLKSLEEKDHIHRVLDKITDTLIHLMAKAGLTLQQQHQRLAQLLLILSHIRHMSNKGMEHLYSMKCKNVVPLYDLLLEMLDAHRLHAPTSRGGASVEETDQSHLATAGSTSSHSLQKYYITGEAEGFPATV

[4] = target: Gamma-aminobutyric acid receptor subunit alpha-1/alpha-2/beta-2/gamma-2 (Homo sapiens, UniProt P14867+P18507+P47869+P47870); assay type: protein-complex assay
[5] = target: Vascular endothelial growth factor receptor 2 (Homo sapiens, UniProt P35968); assay type: functional
Mu-type opioid receptor = Mu-type opioid receptor (Homo sapiens, UniProt P35372)
[6] = target: cGMP-inhibited 3',5'-cyclic phosphodiesterase 3A (Homo sapiens, UniProt Q14432); assay type: functional
[7] = target: 3',5'-cyclic-AMP phosphodiesterase 4A (Homo sapiens, UniProt P27815); assay type: functional
[8] = target: Sodium-dependent dopamine transporter (Homo sapiens, UniProt Q01959)
Estrogen receptor [9] = target: T3, Estrogen receptor; assay type: functional
Note: assay procedure not described here.

Sequence of 3',5'-cyclic-AMP phosphodiesterase 4A (P27815 whole entry): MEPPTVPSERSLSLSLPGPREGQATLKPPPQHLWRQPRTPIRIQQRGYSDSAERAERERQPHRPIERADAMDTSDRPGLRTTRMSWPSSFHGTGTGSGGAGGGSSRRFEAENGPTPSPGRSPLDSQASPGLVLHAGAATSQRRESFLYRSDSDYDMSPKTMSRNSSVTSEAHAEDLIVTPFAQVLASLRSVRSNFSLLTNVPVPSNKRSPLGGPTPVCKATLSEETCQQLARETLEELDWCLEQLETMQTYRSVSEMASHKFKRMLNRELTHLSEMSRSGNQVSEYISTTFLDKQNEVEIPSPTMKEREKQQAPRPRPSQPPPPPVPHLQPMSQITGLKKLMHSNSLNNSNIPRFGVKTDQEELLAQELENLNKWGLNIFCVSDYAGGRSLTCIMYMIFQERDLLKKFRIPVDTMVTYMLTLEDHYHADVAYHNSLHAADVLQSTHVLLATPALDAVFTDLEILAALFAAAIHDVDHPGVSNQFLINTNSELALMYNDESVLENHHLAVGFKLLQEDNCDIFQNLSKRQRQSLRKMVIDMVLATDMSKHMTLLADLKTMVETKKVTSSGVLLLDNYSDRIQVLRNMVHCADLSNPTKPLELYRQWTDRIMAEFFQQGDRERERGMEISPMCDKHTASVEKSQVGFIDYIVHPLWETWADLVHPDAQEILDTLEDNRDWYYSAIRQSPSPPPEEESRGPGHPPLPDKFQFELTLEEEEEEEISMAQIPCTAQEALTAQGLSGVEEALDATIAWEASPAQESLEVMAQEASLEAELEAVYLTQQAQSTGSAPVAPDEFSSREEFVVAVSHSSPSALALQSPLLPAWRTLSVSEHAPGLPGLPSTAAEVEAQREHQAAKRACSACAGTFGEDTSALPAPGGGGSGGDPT
Sequence of Gamma-aminobutyric acid receptor subunit alpha-1/alpha-2/beta-2/gamma-2 (P14867 whole entry): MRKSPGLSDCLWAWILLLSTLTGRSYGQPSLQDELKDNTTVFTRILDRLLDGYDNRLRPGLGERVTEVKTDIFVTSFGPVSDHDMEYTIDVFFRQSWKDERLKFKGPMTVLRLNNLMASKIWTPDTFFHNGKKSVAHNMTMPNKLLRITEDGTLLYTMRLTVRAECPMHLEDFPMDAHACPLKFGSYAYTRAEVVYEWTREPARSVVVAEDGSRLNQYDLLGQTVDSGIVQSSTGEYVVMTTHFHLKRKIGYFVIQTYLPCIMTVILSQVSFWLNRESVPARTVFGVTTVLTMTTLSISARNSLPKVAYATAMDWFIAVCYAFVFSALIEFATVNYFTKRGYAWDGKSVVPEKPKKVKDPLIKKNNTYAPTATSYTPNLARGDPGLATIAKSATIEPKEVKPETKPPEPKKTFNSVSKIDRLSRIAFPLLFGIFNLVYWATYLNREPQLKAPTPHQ
Sequence of Gamma-aminobutyric acid receptor subunit alpha-1/alpha-2/beta-2/gamma-2 (P47870 whole entry): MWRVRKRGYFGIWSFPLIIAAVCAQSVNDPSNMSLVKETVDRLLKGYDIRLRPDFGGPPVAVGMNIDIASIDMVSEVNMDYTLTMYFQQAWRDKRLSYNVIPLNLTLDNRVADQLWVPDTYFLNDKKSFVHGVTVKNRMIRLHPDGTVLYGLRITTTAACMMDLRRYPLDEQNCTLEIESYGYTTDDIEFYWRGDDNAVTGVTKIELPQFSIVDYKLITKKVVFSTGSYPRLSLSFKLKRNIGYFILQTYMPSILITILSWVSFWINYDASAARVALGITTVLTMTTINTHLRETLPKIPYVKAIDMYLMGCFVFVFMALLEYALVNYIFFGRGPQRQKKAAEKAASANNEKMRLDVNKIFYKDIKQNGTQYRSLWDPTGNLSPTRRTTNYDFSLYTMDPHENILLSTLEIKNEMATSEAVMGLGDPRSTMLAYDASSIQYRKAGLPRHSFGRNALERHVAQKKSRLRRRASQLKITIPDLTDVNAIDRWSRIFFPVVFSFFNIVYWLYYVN
Sequence of Gamma-aminobutyric acid receptor subunit alpha-1/alpha-2/beta-2/gamma-2 (P18507 whole entry): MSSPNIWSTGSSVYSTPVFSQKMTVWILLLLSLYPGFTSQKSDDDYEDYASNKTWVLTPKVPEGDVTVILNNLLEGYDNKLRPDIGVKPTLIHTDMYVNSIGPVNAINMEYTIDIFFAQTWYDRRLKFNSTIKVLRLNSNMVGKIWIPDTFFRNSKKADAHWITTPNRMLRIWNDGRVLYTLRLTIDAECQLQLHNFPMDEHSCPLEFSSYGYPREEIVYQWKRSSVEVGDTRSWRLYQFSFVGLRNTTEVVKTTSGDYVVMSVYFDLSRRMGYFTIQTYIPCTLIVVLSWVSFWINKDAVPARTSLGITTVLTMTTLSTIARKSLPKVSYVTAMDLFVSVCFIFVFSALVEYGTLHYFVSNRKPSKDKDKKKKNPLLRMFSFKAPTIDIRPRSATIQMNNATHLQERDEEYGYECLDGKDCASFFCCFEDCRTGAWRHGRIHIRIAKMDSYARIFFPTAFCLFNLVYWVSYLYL
Sequence of Gamma-aminobutyric acid receptor subunit alpha-1/alpha-2/beta-2/gamma-2 (P47869 whole entry): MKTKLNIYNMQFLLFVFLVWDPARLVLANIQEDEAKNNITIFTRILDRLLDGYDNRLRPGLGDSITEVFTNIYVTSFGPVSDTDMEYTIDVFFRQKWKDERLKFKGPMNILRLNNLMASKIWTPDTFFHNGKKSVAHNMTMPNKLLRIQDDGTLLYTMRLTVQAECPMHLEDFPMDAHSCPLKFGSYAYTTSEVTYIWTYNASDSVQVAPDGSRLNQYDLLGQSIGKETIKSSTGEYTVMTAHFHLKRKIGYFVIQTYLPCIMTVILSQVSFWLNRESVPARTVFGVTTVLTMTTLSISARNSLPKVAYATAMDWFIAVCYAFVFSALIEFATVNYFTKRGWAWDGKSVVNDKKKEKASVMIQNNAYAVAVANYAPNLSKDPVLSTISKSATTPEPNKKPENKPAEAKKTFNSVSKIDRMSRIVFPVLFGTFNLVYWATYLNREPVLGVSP
Sequence of Vascular endothelial growth factor receptor 2 (P35968 whole entry): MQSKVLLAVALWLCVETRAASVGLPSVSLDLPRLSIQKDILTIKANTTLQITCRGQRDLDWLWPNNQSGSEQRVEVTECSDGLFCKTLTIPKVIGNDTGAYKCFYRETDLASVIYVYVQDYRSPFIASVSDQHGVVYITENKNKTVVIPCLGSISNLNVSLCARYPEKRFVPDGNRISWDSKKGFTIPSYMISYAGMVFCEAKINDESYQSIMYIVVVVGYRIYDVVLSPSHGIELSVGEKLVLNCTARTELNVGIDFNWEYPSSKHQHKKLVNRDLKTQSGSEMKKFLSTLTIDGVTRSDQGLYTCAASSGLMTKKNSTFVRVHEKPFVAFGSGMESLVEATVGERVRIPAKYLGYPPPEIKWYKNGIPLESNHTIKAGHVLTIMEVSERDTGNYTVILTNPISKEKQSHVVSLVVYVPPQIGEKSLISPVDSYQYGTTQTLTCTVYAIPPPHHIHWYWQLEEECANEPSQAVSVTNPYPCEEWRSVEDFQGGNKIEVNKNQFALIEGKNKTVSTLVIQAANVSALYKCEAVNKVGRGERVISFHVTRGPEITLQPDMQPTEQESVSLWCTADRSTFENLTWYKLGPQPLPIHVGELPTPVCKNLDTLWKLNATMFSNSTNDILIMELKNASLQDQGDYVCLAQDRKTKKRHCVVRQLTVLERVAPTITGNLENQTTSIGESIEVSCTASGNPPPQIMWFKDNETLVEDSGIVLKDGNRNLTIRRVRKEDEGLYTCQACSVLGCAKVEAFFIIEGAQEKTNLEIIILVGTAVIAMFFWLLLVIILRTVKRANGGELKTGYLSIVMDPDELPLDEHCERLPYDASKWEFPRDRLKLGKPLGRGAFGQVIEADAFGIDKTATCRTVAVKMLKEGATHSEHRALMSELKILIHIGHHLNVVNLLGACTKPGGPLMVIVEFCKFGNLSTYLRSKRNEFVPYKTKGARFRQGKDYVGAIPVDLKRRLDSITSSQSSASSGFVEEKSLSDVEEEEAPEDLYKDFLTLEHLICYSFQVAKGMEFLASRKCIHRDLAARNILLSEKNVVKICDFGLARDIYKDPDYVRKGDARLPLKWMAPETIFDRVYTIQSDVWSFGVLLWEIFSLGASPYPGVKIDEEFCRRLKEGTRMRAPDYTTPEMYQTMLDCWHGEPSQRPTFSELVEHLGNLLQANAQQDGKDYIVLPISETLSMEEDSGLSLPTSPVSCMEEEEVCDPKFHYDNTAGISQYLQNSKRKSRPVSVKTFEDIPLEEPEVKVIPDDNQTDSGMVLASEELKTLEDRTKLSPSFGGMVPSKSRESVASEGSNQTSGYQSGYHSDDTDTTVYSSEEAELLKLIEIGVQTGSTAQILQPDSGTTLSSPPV
Sequence of Mu-type opioid receptor (P35372 whole entry): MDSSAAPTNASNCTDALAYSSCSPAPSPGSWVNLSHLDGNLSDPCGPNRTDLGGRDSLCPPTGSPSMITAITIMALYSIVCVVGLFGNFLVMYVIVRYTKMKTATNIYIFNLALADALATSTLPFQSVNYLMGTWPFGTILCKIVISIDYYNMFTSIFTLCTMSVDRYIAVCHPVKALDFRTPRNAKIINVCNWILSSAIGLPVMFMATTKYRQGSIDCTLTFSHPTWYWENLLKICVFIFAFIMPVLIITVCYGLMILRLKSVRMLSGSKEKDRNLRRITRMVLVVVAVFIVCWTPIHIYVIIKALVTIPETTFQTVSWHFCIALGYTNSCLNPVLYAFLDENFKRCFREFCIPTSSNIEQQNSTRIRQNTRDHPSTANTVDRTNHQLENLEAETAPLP
Sequence of 5-hydroxytryptamine receptor 2B (P41595 whole entry): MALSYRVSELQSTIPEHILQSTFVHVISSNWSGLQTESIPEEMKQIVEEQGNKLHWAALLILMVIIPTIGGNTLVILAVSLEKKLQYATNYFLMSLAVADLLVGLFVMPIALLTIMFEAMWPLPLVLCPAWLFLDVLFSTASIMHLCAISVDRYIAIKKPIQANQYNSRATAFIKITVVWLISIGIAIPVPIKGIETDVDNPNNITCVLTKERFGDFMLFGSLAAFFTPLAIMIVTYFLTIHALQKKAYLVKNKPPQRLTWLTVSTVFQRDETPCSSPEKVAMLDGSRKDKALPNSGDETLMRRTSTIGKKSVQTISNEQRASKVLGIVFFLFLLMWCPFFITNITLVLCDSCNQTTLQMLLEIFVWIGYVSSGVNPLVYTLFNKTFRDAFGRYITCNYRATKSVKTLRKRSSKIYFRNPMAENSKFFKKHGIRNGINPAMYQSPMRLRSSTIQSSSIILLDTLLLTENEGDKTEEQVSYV

Work on `Fc1ccc([C@@H]2CCNC[C@H]2COc2ccc3c(c2)OCO3)cc1` [PAROXETINE] yielded an AC50 [1] of 10.6 µM.

`O=c1c(O)c(-c2ccc(O)c(O)c2)oc2cc(O)cc(O)c12` [QUERCETIN] showed an AC50 [2] of over 100 µM.

In the case of `CCN(CC)CCCC(C)Nc1c2ccc(Cl)cc2nc2ccc(OC)cc12` (stereo unspecified) [QUINACRINE], the AC50 (Adenosine receptor A3) is reported as over 30 µM, the AC50 (Estrogen receptor [3]) is reported as over 30 µM and the AC50 [4] is reported as over 30 µM. It also gave an AC50 [5] of over 30 µM, an AC50 (Mu-type opioid receptor) of 5.86 µM and an AC50 [6] of over 30 µM. It also gave an AC50 [7] of over 10 µM and an AC50 [8] of 18.4 µM.

For `CCOC(=O)[C@@H](N)Cc1ccc(-c2cc(O[C@H](c3ccc(Cl)cc3-n3ccc(C)n3)C(F)(F)F)nc(N)n2)cc1` [TELOTRISTAT ETHYL], the AC50 (Estrogen receptor [9]) was over 30 µM.
